According to patent US20080262097A1, “Formulations” (priority 2005, published 2008):

Experiments:
P. acnes PRP-004 = assay: Disc diffusion assay (DDA); assay type: cell-based, Propionibacterium acnes; conditions: zone diameter, 200 μg per disc
Experimental: (§1) The Propionibacterium spp organisms were cultured and maintained on Wilkins-Chalgren Anaerobe Medium (agar and broth) at pH 6.0; cultures were incubated anaerobically at 37° C. for 72 hours.
(§2) A sterile paper disc was impregnated with a sample of the test compound and a minimum of 30 minutes allowed for the solvents to evaporate as far as possible. The disc was then placed on an agar plate onto which the test micro-organism had been inoculated. The plate was then incubated under the conditions described above, following which it was examined visually for signs of bacterial growth. If the test compound had antimicrobial activity, a circular zone of no growth would be obtained around the disc. The diameter of this zone of “inhibition” was measured using a ProtoCOL™ automated zone sizer (Synbiosis, Cambridge, UK). In general, a greater diameter and/or area of the zone of inhibition indicates a greater antimicrobial activity in the relevant test compound, although other factors such as test compound mobility through the agar gel may also influence the result.
(§3) The area of the zone of inhibition was calculated from the measured zone diameter (D) using the formula π(D/2)^2.

P. acnes PRP-017 = assay: Disc diffusion assay (DDA); assay type: cell-based, Propionibacterium acnes; conditions: zone diameter, 200 μg per disc
Experimental: as §1, §2, §3

SMILES | DDA (P. acnes PRP-004) | DDA (P. acnes PRP-017)
CC(C)(C)c1cc(O)ccc1O [TBHQ, t-butyl hydroquinone] | 30.32 (±1.97) mm | 18.40 (±1.08) mm
O=C(OOC(=O)c1ccccc1)c1ccccc1 [benzoyl peroxide] | 31.17 (±1.02) mm | 23.28 (±0.48) mm
